Data: patent US20210330606A1, “GLUCOSE CONSUMPTION ACCELERATOR AND GLYCOLYSIS ACCELERATOR” (SHINKO SANGYO Co., Ltd., priority 2018, published 2021)

How the values were obtained:
[1] = system: Rat-derived fibroblasts (Py-3Y1-S2, subculture strain); experiment: Glucose consumption of rat-derived fibroblasts (relative value, control = 100); assay type: cell-based
Text: As drugs, 2-amino-1-cyclohexylethanol (Matrix Biochemicals), 2-aminoethanol (Tokyo Chemical Industry Co., Ltd.), 1-amino-2-propanol (Wako Pure Chemical Industries, Ltd.), 2-amino-1-phenylethanol (Tokyo Chemical Industry Co., Ltd.), 1, 3-bis[tris(hydroxymethyl)-methylamino]propane (Tokyo Chemical Industry Co., Ltd.), N-cyclohexylethanolamine (Tokyo Chemical Industry Co., Ltd.), diethanolamine (Wako Pure Chemical Industries, Ltd.), diethylamine (Wako Pure Chemical Industries, Ltd.), dipropylamine (Tokyo Chemical Industry Co., Ltd.), HEPES sodium salt (MP Biomedicals), metoprolol tartrate (Tokyo Chemical Industry Co., Ltd.), morpholine (Wako Pure Chemical Co., Ltd.), octopamine (MP Biomedicals), propylamine (Tokyo Chemical Industry Co., Ltd.), triethylamine (Wako Pure Chemical Co., Ltd.), timolol maleate (Wako Pure Chemical Industries, Ltd.) and tris(hydroxymethyl)aminomethane (Wako Pure Chemical Industries, Ltd.) were used. Each drug was dissolved in distilled water to prepare a sample.
In the culture, DMEM (Nissui Pharmaceutical Co., Ltd.) was used as a culture medium. […] As a control of the drug, the culture was performed in the same manner except that distilled water to which the drug was not added was added to the culture solution instead of the sample.
After the addition of the drug, the glucose concentration of each of the culture solutions was measured immediately after the start of the culture and after the completion of the culture. The glucose concentration was measured using a glucose assay kit (Waco). Then, the glucose concentration after the completion of the culture was divided by the glucose concentration immediately after the start of the culture (5.6 mmol per liter) to calculate the glucose consumption.
The fibroblasts were cultured. […] Streptozotocin, alloxan, and nicotinamide are drugs all known to produce symptoms of diabetes when administered to the body.
Next, samples of streptozotocin, alloxan, and nicotinamide plus 2-amino-1-phenylethanol (2-A-1-P) were prepared in the same manner. The concentration of 2-A-1-P was 1 mg/ml. The relative value of the glucose consumption was calculated in the same manner.
The fibroblasts were cultured.
The concentration of 2-A-1-P was 0.5 mg/ml. The relative value of the glucose consumption was calculated in the same manner.

[2] = system: Rat-derived fibroblasts (Py-3Y1-S2, subculture strain); experiment: Lactate concentration in culture solution of fibroblasts (relative value, control = 100); assay type: cell-based; conditions: drug 1 mg/ml, control = 100 (FIG. 7A)
Procedure: (§1) First, samples of 2-amino-1-cyclohexylethanol and 2-amino-1-phenylethanol were prepared in the same manner as in Example 1. The fibroblasts and the liver cancer cells were cultured under the same conditions as in Examples 1 and 5. […] As a control, the culture was performed in the same manner except that distilled water to which the drug was not added was added to the culture solution instead of the sample.
(§2) After the addition of the drug, the culture solution was diluted so that the weight ratio of the culture solution to distilled water was 1:19, and the lactate concentration of the diluted culture solution was measured. The lactate concentration was measured using a lactate assay kit (product name: Lactate Assay Kit-WST, product of Dojindo Laboratories).

[3] = system: rat-derived liver cancer cells (Ry121B, subculture line); experiment: Lactate concentration in culture solution of liver cancer cells (relative value, control = 100); assay type: cell-based; conditions: drug 1 mg/ml, control = 100 (FIG. 7B)
Procedure: as §1, §2

[4] = system: Py-3Y1-S2, TE-13, VERO and HepG2 cells; experiment: Lactate concentration after 24 to 48 hours culture, mean over four cell types (Example 8); assay type: cell-based, rat, human, African green monkey; conditions: drug 0.5 mg/ml, mean of five experiments in four cell types
Procedure: as §2
First, a sample of 2-amino-1-cyclohexylethanol (2-amino-1-cyclohexyl EOH) was prepared in the same manner as in Example 1. In addition to the rat-derived fibroblasts (Py-3Y1-S2, subculture line), human-derived esophageal cancer cells (TE-13, subculture line), African green monkey-derived kidney epithelial cells (VERO, subculture line), and human-derived hepatocellular cancer cells (HepG2, subculture line) were used and cultured under the same conditions as in Example 1. […] Thereafter, the culture solutions were further cultured for 24 to 48 hours. The culture time after the addition of the sample was set to the same condition for each cell. As a control 1, the culture was performed in the same manner except that distilled water to which the drug was not added was added to the culture solution instead of the sample. […] Then, the lactate concentration in each sample was measured in the same manner as in Example 6. […]

[5] = system: Py-3Y1-S2, TE-13, VERO and HepG2 cells; experiment: Lactate concentration after 2 to 3 days culture, lactate metabolism, mean over four cell types (Example 9); assay type: cell-based, rat, human, African green monkey
Procedure: as §2
First, samples of 2-amino-1-cyclohexylethanol (2-amino-1-cyclohexyl EOH) and 2-amino-1-phenylethanol (2-amino-1-phenyl EOH) were prepared in the same manner as in Example 1. Four types of cells were used as in Example 8, and each of the cells was cultured under the same conditions as in Example 1. […] Thereafter, the culture time was lengthened to 2 to 3 days (48 to 72 hours) compared to Example 8. As a control 1, the culture was performed in the same manner except that distilled water to which the drug was not added was added to the culture solution instead of the sample. As a control 2, the culture was performed in the same manner as the […] except that a sample of biguanide prepared in the same manner as in Example 1 was added to the culture solution instead of the sample. Then, the lactate concentration in each sample was measured in the same manner as in Example 6. Each of the four cells was used for a total of four experiments.

[6] = system: rat-derived liver cancer cells (Ry121B, subculture line); conditions: drug 1 mg/ml, control = 100
[7] = Example 3, fibroblasts, drug alone 1 mg/ml, control = 100
[8] = fibroblasts, drug 0.5 mg/ml, 12 to 24 hours, control = 100 (FIG. 1A, 2A)
[9] = fibroblasts, drug 1 mg/ml, 12 to 24 hours, control = 100 (FIG. 1B, 2B)

Row | Compound | relative value of glucose consumption [1, 8] | relative value of glucose consumption [1, 9] | also measured
1 | O=C1NC(=O)C(=O)C(=O)N1 [alloxan, reference compound] | – | – | relative value of glucose consumption [1, 7]: about 70
2 | NCC(O)C1CCCCC1 (stereo not shown) [2-amino-1-cyclohexylethanol] | significantly increased glucose consumption | significantly increased glucose consumption | relative value of glucose consumption ([1]; Example 2, fibroblasts, drug 0.1 mg/ml, control = 100): about 120; relative value of glucose consumption ([1]; Example 2, fibroblasts, drug 0.25 mg/ml, control = 100): about 130; relative value of glucose consumption ([1]; Example 2, fibroblasts, drug 0.5 mg/ml, control = 100): about 150; relative value of lactate concentration [2]: about 145; relative value of lactate concentration [3]: about 140; lactate concentration in the culture solution [4]: 9.35 mmol/L; lactate concentration in the culture solution compared to control 1 ([5]; drug 0.5 mg/ml, 2 to 3 days (48 to 72 hours) culture, mean of four experiments): equivalent to that of control 1; relative value of glucose consumption [6]: about 145
3 | CCNCC [diethylamine] | significantly increased glucose consumption | significantly increased glucose consumption | –
4 | COCCc1ccc(OCC(O)CNC(C)C)cc1.COCCc1ccc(OCC(O)CNC(C)C)cc1.O=C(O)C(O)C(O)C(=O)O (stereo not shown) [metoprolol tartrate, reference compound] | significantly increased glucose consumption | significantly increased glucose consumption | –
5 | C1COCCN1 [morpholine] | significantly increased glucose consumption | significantly increased glucose consumption | –
6 | concanavalin A [reference compound] | – | – | relative value of glucose consumption ([1]; Example 4, fibroblasts, ConA alone 100 μg/ml): about 120
7 | NCCO [2-aminoethanol] | significantly increased glucose consumption | significantly increased glucose consumption | –
8 | CN(N=O)C(=O)N[C@H]1C(O)O[C@H](CO)[C@@H](O)[C@@H]1O (mixture of isomers) [streptozotocin, reference compound] | – | – | relative value of glucose consumption [1, 7]: about 90
9 | CCN(CC)CC [triethylamine] | significantly increased glucose consumption | significantly increased glucose consumption | –
10 | OCCNCCO [diethanolamine] | significantly increased glucose consumption | significantly increased glucose consumption | –
11 | OCCNC1CCCCC1 [N-cyclohexylethanolamine] | significantly increased glucose consumption | significantly increased glucose consumption | –
12 | CCCNCCC [dipropylamine] | significantly increased glucose consumption | significantly increased glucose consumption | –
13 | O=S(=O)([O-])CCN1CCN(CCO)CC1.[Na+] [HEPES sodium salt] | significantly increased glucose consumption | significantly increased glucose consumption | –
14 | CC(O)CN (stereo not shown) [1-amino-2-propanol] | significantly increased glucose consumption | – | –
15 | N=C(N)NC(=N)N [biguanide, reference compound] | – | – | lactate concentration in the culture solution [4]: increased the lactate concentration; lactate concentration relative to Control 1 ([5]; 2 to 3 days culture after addition of biguanide, P<0.05): about 3.5 times
16 | CCCN [propylamine] | significantly increased glucose consumption | significantly increased glucose consumption | –
17 | OCC(CO)(CO)NCCCNC(CO)(CO)CO [1,3-bis[tris(hydroxymethyl)methylamino]propane] | – | significantly increased glucose consumption | –
18 | tris(hydroxymethyl)aminomethane | significantly increased glucose consumption | significantly increased glucose consumption | –
19 | [O]=[V](=[O])[O][V](=[O])=[O] [V2O5, reference compound] | – | – | relative value of glucose consumption ([1]; Example 4, fibroblasts, drug alone, vanadium final concentration 1.0 mg/ml (V2O5 not printed separately)): about 115
20 | CC(C)(C)NC[C@H](O)COc1nsnc1N1CCOCC1.O=C(O)/C=C\C(=O)O [timolol maleate, reference compound] | significantly increased glucose consumption | significantly increased glucose consumption | –
21 | NC(=O)c1cccnc1 [nicotinamide, reference compound] | – | – | relative value of glucose consumption [1, 7]: about 85
